We go through 29 molecules from patent US8518952B2, “6 substituted 2-heterocyclylamino pyrazine compounds as CHK-1 inhibitors” (Pfizer Inc., priority 2008, dated 2013).

Structures can show the parent of a compound that is named as a salt. Where two headings read alike, the source gives them in different places.

One assay has as its target T1, CHK1 (kinase domain) (Homo sapiens, UniProt O14757).
T1 construct: a solution containing 1 nM of CHK1 (kinase domain)
T1 sequence (O14757 9-265 limits assumed): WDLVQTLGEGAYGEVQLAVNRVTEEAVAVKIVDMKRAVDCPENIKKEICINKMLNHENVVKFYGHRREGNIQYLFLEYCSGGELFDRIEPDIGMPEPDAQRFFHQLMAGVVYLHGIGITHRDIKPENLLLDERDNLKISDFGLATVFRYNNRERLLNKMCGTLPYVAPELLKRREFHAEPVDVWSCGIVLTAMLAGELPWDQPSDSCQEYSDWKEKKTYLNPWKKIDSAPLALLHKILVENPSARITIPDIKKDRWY
Briefly: CHK1 Ki determination, spectrophotometric coupled (pyruvate kinase/lactate dehydrogenase) assay. It is filed as biochemical. As to conditions: CHK-1 kinase domain; for percent inhibition (where no Ki data is available): inhibitor concentration not given; for Ki: 150 uM ATP, 125 uM Syntide 2. On the procedure:
After 15 min pre-incubation, the enzymatic reaction was initiated by the simultaneous addition of Syntide 2 peptide (125 uM, final concentration) and ATP (150 uM, final concentration). The kinase-catalyzed production of ADP from ATP that accompanied phosphoryl transfer to the substrate Syntide 2 was coupled to the oxidation of NADH through the activities of pyruvate kinase and lactate dehydrogenase. NADH conversion to NAD^+ was monitored by the decrease in absorbance at 340 nm (ε=6.22 cm^−1 mM^−1) using a microplate reader from Molecular Devices Spectormax Plus (Sunnyvale, Calif.) or BMG LABTECH Inc (Offenburg, Germany).
The inhibition of CHK1 was analyzed by fitting the data to the following equation to determine Kiapp:
[formula] where [E]o and [I]o are the active enzyme and inhibitor concentration, respectively; Ki is the inhibition binding constant and Km the Michaelis-Menten constant for ATP; Vi and Vo are the rates of substrate oxidation in the presence of and in the absence of inhibitor, respectively. EC50 Determination (Cellular Assay)
(§1) Under the “Ki” column, data entries in the format of “%” are percent inhibition data where no Ki data is available. Data entry under the “EC50” column with an * are data obtained using Mia Paca-2 cells rather than HeLa cells. Data is not available where noted as n/a.

The test system of another assay is HeLa cells. Briefly: Histone H3 (Ser10) phosphorylation ELISA, abrogation of camptothecin-induced G2 arrest (CHK-1 cellular assay). It is filed as cell-based. As to the method:
The Histone H3 phosphorylation ELISA assay detects cells entering mitosis and represents the primary in vitro cell-based assay used to measure the cellular potency of compounds in abrogating the G2 check point induced by DNA damage in HeLa cells or MiaPaCa cells. The candidate substances were assayed for potency in their ability to inhibit camptothecin-induced G2 arrest, as measured by an increase in Histone H3 phosphorylation on Ser10, a marker of entry into mitosis.
Tissue culture plates were seeded with HeLa cells or MiaPaCa Cells and allowed to attach overnight. The cells were then treated with camptothecin to induce DNA damage for 8 hrs. Candidate substances or diluent were then added in the presence of nocodozole for 16 hours. […] The fresh whole cell lysates were then thawed and added to the ELISA plate with shaking for 3 hours. Between all subsequent steps plates were washed 4 times with PBST. Biotinylated phospho Histone H3 (ser10) detection antibody was added for 1 hour, followed by addition of horseradish peroxidase-linked streptavidin secondary antibody for 1 hour. Color development of the antibody was performed with addition of TMB substrate and incubation for 2 minutes on a plate shaker. […] EC50 values were calculated by sigmoid curve fitting using a four-parameter analysis.
as §1
(An ELISA detects its analyte on a solid surface through an enzyme-linked reagent.)

[1] abbreviates: Homo sapiens, HeLa, HeLa cells, camptothecin 8 hrs, then compound with nocodozole 16 hours, read-out: EC50.
[2] abbreviates: HeLa cells, camptothecin 8 hrs, then compound with nocodozole 16 hours, read-out: EC50.

What is called EC50 is the concentration needed to bring the measured effect to its halfway point. In the case of `F[C@H]1CNC[C@@H]1Nc1cncc(-c2cnc3ccccn23)n1` (relative stereo) [Example 46, Trans N-[4-fluoropyrrolidin-3-yl]-6-imidazo[1,2-a]pyridin-3-ylpyrazin-2-amine], the “percent inhibition (where no Ki data is available)” value on CHK1 (kinase domain) was found to be 29.7%^. Besides, the EC50 in the assay on HeLa cells (setting [1]) stood at 7970 nM.
A word on the Ki: it is the equilibrium dissociation constant of an inhibitor or competing ligand from its target. Read a low Ki as a stronger hold on the target. `Cc1cn2c(-c3cncc(N[C@@H]4CC[C@@H](C)NC4)n3)cnc2s1` (relative stereo) [Example 61, Trans 6-(2-Methylimidazo[2,1-b][1,3]thiazol-5-yl)-N-(6-methylpiperidin-3-yl)pyrazin-2-amine] yielded a Ki on CHK1 (kinase domain) of 37.9 nM. Further, the EC50 in the assay on HeLa cells (setting [1]) amounted to 119 nM.
The corresponding values for `Cc1cn2c(-c3cncc(N[C@@H]4CC[C@H](C)NC4)n3)cnc2s1` (relative stereo) [Example 62, Cis 6-(2-Methylimidazo[2,1-b][1,3]thiazol-5-yl)-N-(6-methylpiperidin-3-yl)pyrazin-2-amine] are 73.5 nM and 694 nM.
On to `c1ccc2c(c1)ncn2-c1cncc(N[C@@H]2CCCNC2)n1` [Example 1, 6-(1H-benzimidazol-1-yl)-N-[(3R)-piperidin-3-yl]pyrazin-2-amine], for which affinity on CHK1 (kinase domain) was put at a Ki of 13.2 nM. Moreover, the EC50 in the assay with HeLa cells (Homo sapiens, HeLa) is 70.3 nM.
As to `c1ccn2c(-c3cncc(N[C@@H]4CCCNC4)n3)cnc2c1` [Example 2, 6-Imidazo[1,2-a]pyridin-3-yl-N-[(3R)-piperidin-3-yl]pyrazin-2-amine], on CHK1 (kinase domain), the Ki worked out at 3.24 nM. In addition, the EC50 with HeLa cells (Homo sapiens, HeLa) came out at 34.3 nM.
On to `c1ccn2c(-c3cncc(N[C@H]4CCCNC4)n3)cnc2c1` [Example 3, 6-Imidazo[1,2-a]pyridin-3-yl-N-[(3S)-piperidin-3-yl]pyrazin-2-amine], for which the “percent inhibition (where no Ki data is available)” value at CHK1 (kinase domain) is listed as 0%. Moreover, the EC50 in the assay with HeLa cells (setting [1]) came out at 486 nM.
`c1ccn2ncc(-c3cncc(N[C@@H]4CCCNC4)n3)c2c1` [Example 6, N-[(3R)-piperidin-3-yl]-6-pyrazolo[1,5-a]pyridin-3-ylpyrazin-2-amine] gave a Ki at CHK1 (kinase domain) of 2.54 nM. Moreover, the EC50 in the assay on HeLa cells (setting [1]) is 31.8 nM.
`F[C@@H]1CNC[C@@H]1Nc1cncc(-c2cnc3cccnn23)n1` [Example 81, N-[(3S,4R)-4-fluoropyrrolidin-3-yl]-6-imidazo[1,2-b]pyridazin-3-ylpyrazin-2-amine, acetate salt] came in with a Ki at CHK1 (kinase domain) of 1000 nM.
As to `F[C@@H]1CNC[C@H]1Nc1cncc(-c2cnc3cccnn23)n1` [Example 82, N-[(3R,4R)-4-fluoropyrrolidin-3-yl]-6-imidazo[1,2-b]pyridazin-3-ylpyrazin-2-amine], at CHK1 (kinase domain), the Ki is 1000 nM.
On CHK1 (kinase domain), `C[C@H]1CC[C@@H](Nc2cncc(-c3cnc4cccnn34)n2)CN1` [Example 83, 6-imidazo[1,2-b]pyridazin-3-yl-N-[(3R,6S)-6-methylpiperidin-3-yl]pyrazin-2-amine, acetate salt] yielded a Ki of 1000 nM.
With `C[C@@H]1CC[C@@H](Nc2cncc(-c3cnc4cccnn34)n2)CN1` [Example 84, 6-imidazo[1,2-b]pyridazin-3-yl-N-[(3R,6R)-6-methylpiperidin-3-yl]pyrazin-2-amine, acetate salt], the Ki at CHK1 (kinase domain) worked out at 1000 nM.
As for `Cc1cn2c(-c3cncc(N[C@@H]4C[C@@H]5CN[C@H]4C5)n3)cnc2s1` [Example 85, (1S,4R,6R)-2-Aza-bicyclo[2.2.1]hept-6-yl-[6-(2-methyl-imidazo[2,1-b]thiazol-5-yl)-pyrazin-2-yl]-amine], the EC50 with HeLa cells (setting [2]) came out at 795 nM.
Take `C[C@@H]1NCCC[C@H]1Nc1cncc(-c2cnc3ccc(F)cn23)n1` [Example 95, 6-(6-fluoroimidazo[1,2-a]pyridin-3-yl)-N-[(2S,3R)-2-methylpiperidin-3-yl]pyrazin-2-amine]: the affinity on CHK1 (kinase domain), expressed as Ki, was 37.5 nM.
Regarding `Cc1cn2c(-c3cncc(N[C@@H]4C[C@@H]5CN[C@H]4C5)n3)cnc2s1` [Example 125, (1S,4R,6R)-N-[6-(2-methylimidazo[2,1-b][1,3]thiazol-5-yl)pyrazin-2-yl]-2-azabicyclo[2.2.1]heptan-6-amine], the EC50 in the assay with HeLa cells (setting [2]) was 35 nM.
For the molecule `C[C@@H]1NCCC[C@H]1Nc1cncc(-c2cnc3ccccn23)n1` [Example 131, 6-imidazo[1,2-a]pyridin-3-yl-N-[(2S,3R)-2-methylpiperidin-3-yl]pyrazin-2-amine], the “percent inhibition (where no Ki data is available)” value on CHK1 (kinase domain) amounted to 0%.
For `Cc1cn2c(-c3cncc(N[C@@H]4CCCN[C@H]4C)n3)cnc2s1` [Example 133, 6-(2-methylimidazo[2,1-b][1,3]thiazol-5-yl)-N-[(2S,3R)-2-methylpiperidin-3-yl]pyrazin-2-amine], the Ki on CHK1 (kinase domain) came out at 21.4 nM.
Consider `C[C@H]1NCCC[C@H]1Nc1cncc(-c2cnc3ccccn23)n1` [Example 138, 6-imidazo[1,2-a]pyridin-3-yl-N-[(2R,3R)-2-methylpiperidin-3-yl]pyrazin-2-amine], for which the EC50 in the assay with HeLa cells (setting [2]) came to 188 nM.
Take `Cc1nc2ccccn2c1-c1cncc(N[C@@H]2CCCNC2)n1` [Example 153, 6-(2-methylimidazo[1,2-a]pyridin-3-yl)-N-[(3R)-piperidin-3-yl]pyrazin-2-amine]: at CHK1 (kinase domain), the “percent inhibition (where no Ki data is available)” value was found to be 2.2%^.
On CHK1 (kinase domain), `C[C@H]1NCCC[C@H]1Nc1cncc(-c2cnc3ccc(F)cn23)n1` [Example 164, 6-(6-fluoroimidazo[1,2-a]pyridin-3-yl)-N-[(2R,3R)-2-methylpiperidin-3-yl]pyrazin-2-amine] returned a Ki of 18.4 nM.
With `Cc1cn2c(-c3cncc(N[C@H]4CCCN[C@@H]4C)n3)cnc2s1` [Example 177, 6-(2-methylimidazo[2,1-b][1,3]thiazol-5-yl)-N-[(2R,3S)-2-methylpiperidin-3-yl]pyrazin-2-amine], the “percent inhibition (where no Ki data is available)” value on CHK1 (kinase domain) is recorded as 49.1%^.
In the case of `FC[C@@H]1CNC[C@@H]1Nc1cncc(-c2cnc3sccn23)n1` [Example 182, N-[(3R,4R)-4-(fluoromethyl)pyrrolidin-3-yl]-6-(imidazo[2,1-b][1,3]thiazol-5-yl)pyrazin-2-amine], the “percent inhibition (where no Ki data is available)” value at CHK1 (kinase domain) worked out at 98.9%^.
Regarding `Cc1cccn2c(-c3cncc(N[C@@H]4CCCNC4)n3)cnc12` [Example 207, 6-(8-methylimidazo[1,2-a]pyridin-3-yl)-N-[(3R)-piperidin-3-yl]pyrazin-2-amine], at CHK1 (kinase domain), the “percent inhibition (where no Ki data is available)” value worked out at 21%.
Consider `c1ccc2c(c1)ncn2-c1cncc(NC2CCNC2)n1` (stereo not drawn) [Example 208, 6-(1H-benzimidazol-1-yl)-N-(pyrrolidin-3-yl)pyrazin-2-amine], for which the Ki on CHK1 (kinase domain) worked out at 195 nM.
As for `COc1ccn2c(-c3cncc(N[C@H]4CNC[C@H]4C4CCCC4)n3)cnc2c1` [Example 210, N-[(3R,4R)-4-cyclopentylpyrrolidin-3-yl]-6-(7-methoxyimidazo[1,2-a]pyridin-3-yl)pyrazin-2-amine], the Ki on CHK1 (kinase domain) was 2.85 nM.
Take `c1cc2ncn(-c3cncc(N[C@@H]4CCNC4)n3)c2cc1OCC1CC1` [Example 220, 6-[6-(cyclopropylmethoxy)-1H-benzimidazol-1-yl]-N-[(3R)-pyrrolidin-3-yl]pyrazin-2-amine]: the “percent inhibition (where no Ki data is available)” value on CHK1 (kinase domain) is given as 17.9%^.
Regarding `N#Cc1ccc2ncc(-c3cncc(N[C@H]4CNC[C@H]4C4CC4)n3)n2c1` [Example 263, 3-(6-{[(3R,4R)-4-cyclopropylpyrrolidin-3-yl]amino}pyrazin-2-yl)imidazo[1,2-a]pyridine-6-carbonitrile], at CHK1 (kinase domain), the affinity, expressed as Ki, was 374 nM.
Regarding `CCOc1cc2ncn(-c3cncc(N[C@H]4CN[C@H](COC)C4)n3)c2cn1` [Example 297, [6-(6-Ethoxy-imidazo[4,5-c]pyridin-3-yl)-pyrazin-2-yl]-((3R,5S)-5-methoxymethyl-pyrrolidin-3-yl)-amine], the affinity on CHK1 (kinase domain) corresponds to a Ki of 105 nM.
The molecule `CCOc1cc2ncn(-c3cncc(N[C@H]4CNCC[C@@H]4OC)n3)c2cn1` [Example 298, [6-(6-Ethoxy-imidazo[4,5-c]pyridin-3-yl)-pyrazin-2-yl]-((3S,4S)-4-methoxy-piperidin-3-yl)-amine] registered a Ki on CHK1 (kinase domain) of 5.27 nM.
Still for that read-out and setting: the result for `c1cc2c(-c3cncc(N[C@@H]4CCCNC4)n3)cnn2cn1` [Example 299, (R)-Piperidin-3-yl-(6-pyrazolo[1,5-c]pyrimidin-3-yl-pyrazin-2-yl)-amine] reads 4.11 nM.
